Experimental data reported in patent US7829593B2, “Glutamine-containing compositions and a method for increasing blood flow using same” (Ajinomoto Co., Inc., priority 2006, dated 2010).
Read-outs that look alike come from different tables or passages of the source.

How the values were obtained:
[1] = system: blood flow in the capillary vessels of various organs of rats; test: Changes in blood flow in various organs after oral administration of glutamine to rats (microsphere method); type: in vivo, rat; settings: for Change in blood flow after administration of amino acid, on the basis of 100% blood flow before administration: male SD rats, 50 mg/kg glutamine into the stomach
Experimental: (a) Glutamine was given to rats and then the changes in blood flow in the capillary vessels of their various organs were determined. (b) Male SD rats having a body weight of about 400 g were subjected to the experiment. (c) The rats were anesthetized by pentobarbital, and catheters were placed in the left ventricle and the right […] of each rat. […] Through the catheter located from the carotid artery to the left ventricle, yellow and red microspheres were each injected before and after the administration of the amino acid solution. […] For the control group, distilled water was administered. (b) Operation: Catheters were inserted into the carotid and femoral arteries of the rats under anesthesia, the microspheres were injected via these catheters, and blood samples were taken. […] After a sufficient interval after the second injection of the microspheres, the rats were euthanized. The muscles, alimentary canals, liver, kidneys, spleen, heart, brain, fat tissue, and abdominal skin were extracted. The microspheres which had collected in each organ were removed and the change in the ratio of the blood flow was calculated from the amounts of microspheres present in each organ.

[2] = system: blood pressure and vascular resistance in humans; settings: 78 kg average body weight, cited from earlier work

Compound	Change in blood flow after administration of amino acid, on the basis of 100% blood flow before administration ([1]; Abdominal skin) [%]	Change in blood flow after administration of amino acid, on the basis of 100% blood flow before administration ([1]; Brain) [%]	Change in blood flow after administration of amino acid, on the basis of 100% blood flow before administration ([1]; Dorsal skin) [%]	Change in blood flow after administration of amino acid, on the basis of 100% blood flow before administration ([1]; Duodenum) [%]	Change in blood flow after administration of amino acid, on the basis of 100% blood flow before administration ([1]; Fat tissues) [%]	Change in blood flow after administration of amino acid, on the basis of 100% blood flow before administration ([1]; Gastrocnemius) [%]	Change in blood flow after administration of amino acid, on the basis of 100% blood flow before administration ([1]; Heart) [%]	Change in blood flow after administration of amino acid, on the basis of 100% blood flow before administration ([1]; Kidney) [%]	Change in blood flow after administration of amino acid, on the basis of 100% blood flow before administration ([1]; Liver) [%]	Change in blood flow after administration of amino acid, on the basis of 100% blood flow before administration ([1]; Soleus) [%]	Change in blood flow after administration of amino acid, on the basis of 100% blood flow before administration ([1]; Spleen) [%]	Blood flow in the capillary vessels (result in words) ([1]; abdominal skin, spleen, liver, heart and brain, rats, 50 mg/kg glutamine)	Effect on blood pressure and vascular resistance ([2]; 6 g arginine intravenously)	Effect on blood pressure and vascular resistance ([2]; 30 g arginine intravenously)
NC(=O)CC[C@H](N)C(=O)O [Glutamine, glutamine]	146	163	154	136	137	105	259	113	226	146	146	significant increase in blood flow	–	–
N=C(N)NCCC[C@H](N)C(=O)O [arginine]	–	–	–	–	–	–	–	–	–	–	–	–	did not have either effect	lowered blood pressure and vascular resistance
